Measurements published in patent US20250026769A1, “PAPD5 INHIBITORS AND METHODS OF USE THEREOF” (The Children's Medical Center Corporation, priority 2021, published 2025).

Molecular target: T1, rPAPD5 (Homo sapiens, UniProt Q8NDF8)
T1 construct: made in house
Assay: differential scanning fluorimetry (DSF) binding and stabilization of rPAPD5
Conditions: shift vs DMSO control; for ΔTm at 100 µM: 100 μM test compound, read-out: ΔTm at 100 μM
Method: Binding and stabilization of rPAPD5 by test compounds was determined using differential scanning fluorimetry (DSF). DSF assays were performed to determine protein melting temperature using an indicator dye SYPRO orange (Thermo Fisher Scientific, S6651) diluted 1:5000 in […] of buffer containing […], […] (Jena Biosciences), 25 mM Tris-HCl, 5 mM MgCl2, 50 mM KCl. […] DMSO was used as a negative control. Each curve was an average of three measurements and Thermal Shift software (Thermo Fisher Scientific, 4466038) was used for analysis. […] The change in melting temperature (ΔTm) is in reference to the DMSO control. Referring to Table 2, “+” refers to ΔTm values below 1° C., “++” refers to ΔTm values from 1 to 5° C., and “+++” refers to ΔTm values above 5° C.

T1 sequence (Q8NDF8 68-698 isoform Q8NDF8-5 limits assumed): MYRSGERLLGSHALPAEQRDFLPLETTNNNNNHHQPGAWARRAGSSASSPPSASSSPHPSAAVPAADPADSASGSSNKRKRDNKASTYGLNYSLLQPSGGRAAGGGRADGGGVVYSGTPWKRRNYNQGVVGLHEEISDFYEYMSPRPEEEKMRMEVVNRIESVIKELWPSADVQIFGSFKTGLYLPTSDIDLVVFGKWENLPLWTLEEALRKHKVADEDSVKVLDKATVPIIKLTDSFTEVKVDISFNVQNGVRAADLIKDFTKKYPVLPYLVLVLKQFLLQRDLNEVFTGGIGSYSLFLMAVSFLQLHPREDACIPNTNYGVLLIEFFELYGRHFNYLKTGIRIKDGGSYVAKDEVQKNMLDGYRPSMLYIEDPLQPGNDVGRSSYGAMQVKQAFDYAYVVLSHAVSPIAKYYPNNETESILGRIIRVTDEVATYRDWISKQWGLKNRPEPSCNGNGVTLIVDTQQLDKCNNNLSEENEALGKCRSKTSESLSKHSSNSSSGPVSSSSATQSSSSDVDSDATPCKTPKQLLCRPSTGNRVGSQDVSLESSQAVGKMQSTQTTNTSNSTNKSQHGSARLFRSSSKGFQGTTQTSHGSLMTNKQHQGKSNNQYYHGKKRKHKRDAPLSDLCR

| Compound | ΔTm at 100 µM [°C] | ΔTm at 10 µM (10 μM test compound, read-out: ΔTm (Table 2, starred: the compound was tested at 10 μM)) [°C] |
| --- | --- | --- |
| O=C(O)c1c(Nc2c(S(=O)(=O)N3CCOCC3)cnc3ccc(Cl)cc23)cccc1N1CCC1 [Compound 87A-Cl] | 1 to 5 | – |
| O=C(O)c1c(Nc2c(S(=O)(=O)N3CCOCC3)cnc3ccc(Cl)cc23)cccc1-c1ccn[nH]1 [Compound 91A-Cl] | 1 to 5 | – |
| O=C(O)c1ccccc1Nc1c(S(=O)(=O)N2CCN(C(=O)OCc3ccccc3)CC2)cnc2ccc(Cl)cc12 [Compound 123A-CBZ] | – | > 5 |
| O=C(O)c1ccccc1Nc1c(S(=O)(=O)N2CCNCC2)cnc2ccc(Cl)cc12 [Compound 123A] | > 5 | – |
| COC(=O)c1ccccc1Nc1c(S(=O)(=O)N2CCOCC2)cnc2ccc(Cl)cc12 [Compound 124A] | 1 to 5 | – |
| O=C(O)c1c(F)cccc1Nc1c(S(=O)(=O)N2CCOCC2)cnc2ccc(Cl)cc12 [Compound 125A] | 1 to 5 | – |
| O=C(O)c1c(Nc2c(S(=O)(=O)N3CCOCC3)cnc3ccc(Cl)cc23)cccc1C(O)(O)C(F)(F)F [Compound 127A-1] | > 5 | – |
| O=C(O)c1c(Br)cccc1Nc1c(S(=O)(=O)N2CCOCC2)cnc2ccc(Cl)cc12 [Compound 128A-BR] | < 1 | – |
| O=C(O)c1ccccc1Nc1c(S(=O)(=O)N2CCOCC2)cnc2ccc(OC(F)(F)F)cc12 [Compound 131A] | > 5 | – |
| O=C(O)c1ccccc1Nc1c(S(=O)(=O)N2CCC(F)(F)CC2)cnc2ccc(OC(F)(F)F)cc12 [Compound 132A] | > 5 | – |
| O=C(O)c1c(O)cccc1Nc1c(S(=O)(=O)N2CCC(F)(F)CC2)cnc2ccc(OC(F)(F)F)cc12 [Compound 133A] | > 5 | – |
| O=C(O)c1ccccc1Nc1c(-c2cnco2)cnc2ccc(Cl)cc12 [Compound 134A] | > 5 | – |
| O=C(O)c1ccccc1Nc1c(S(=O)(=O)N2CC(CO)(CCl)C2)cnc2ccc(Cl)cc12 [Compound 135A-BP] | > 5 | – |
| O=C(O)c1ccccc1Nc1c(S(=O)(=O)N2CC3(COC3)C2)cnc2ccc(Cl)cc12 [Compound 135A] | > 5 | – |
| Cc1ccc(-c2ccc3ncc(S(=O)(=O)N4CCOCC4)c(Nc4ccccc4C(=O)O)c3c2)s1 [Compound 136A] | 1 to 5 | – |
| O=C(O)c1ccccc1Nc1c(S(=O)(=O)N2CCOCC2)cnc2ccc(-c3cc[nH]n3)cc12 [Compound 137A] | 1 to 5 | – |
| CC(=O)c1ccc(-c2ccc3ncc(S(=O)(=O)N4CCOCC4)c(Nc4ccccc4C(=O)O)c3c2)s1 [Compound 138A] | > 5 | – |
| N#Cc1csc(-c2ccc3ncc(S(=O)(=O)N4CCOCC4)c(Nc4ccccc4C(=O)O)c3c2)c1 [Compound 139A] | 1 to 5 | – |
| O=C(O)c1ccccc1Nc1c(S(=O)(=O)N2CCOCC2)cnc2ccc(-c3sccc3Cl)cc12 [Compound 140A] | 1 to 5 | – |
| CC(C)n1nc(C(F)(F)F)cc1-c1ccc2ncc(S(=O)(=O)N3CCOCC3)c(Nc3ccccc3C(=O)O)c2c1 [Compound 141A] | < 1 | – |
| CN(C)c1ncc(-c2ccc3ncc(S(=O)(=O)N4CCOCC4)c(Nc4ccccc4C(=O)O)c3c2)cn1 [Compound 142A] | 1 to 5 | – |
| N=c1cc(C(F)(F)F)c(-c2ccc3ncc(S(=O)(=O)N4CCOCC4)c(Nc4ccccc4C(=O)O)c3c2)c[nH]1 [Compound 143A] | 1 to 5 | – |
| O=C(O)c1ccccc1Nc1c(S(=O)(=O)N2CCOCC2)cnc2ccc(-c3cn(S(=O)(=O)c4ccccc4)c4ncccc34)cc12 [Compound 144A] | > 5 | – |
| COCCn1cc(-c2ccc3ncc(S(=O)(=O)N4CCOCC4)c(Nc4ccccc4C(=O)O)c3c2)cn1 [Compound 145A] | > 5 | – |

| Compound | ΔTm at 100 µM [°C] | ΔTm at 10 µM (10 μM test compound, read-out: ΔTm (Table 2, starred: the compound was tested at 10 μM)) [°C] |
| --- | --- | --- |
| O=C(O)c1ccccc1Nc1c(S(=O)(=O)N2CCOCC2)cnc2ccc(-c3cc4cc(Cl)ccc4s3)cc12 [Compound 146A-C1] | < 0 | – |
| O=C(O)c1ccccc1Nc1c(S(=O)(=O)N2CCOCC2)cnc2ccc(-c3c[nH]c4ncc(C(F)(F)F)cc34)cc12 [Compound 147A] | > 5 | – |
| O=C(O)c1ccccc1Nc1c(S(=O)(=O)N2CCOCC2)cnc2ccc(-c3cnn(C4CCOC4)c3)cc12 (centres unmarked) [Compound 148A-R] | 1 to 5 | – |
| O=C(O)c1ccccc1Nc1c(S(=O)(=O)N2CCOCC2)cnc2ccc(-c3cnn4cccnc34)cc12 [Compound 149A] | 1 to 5 | – |
| Cn1cc(-c2ccc3ncc(S(=O)(=O)N4CCOCC4)c(Nc4ccccc4C(=O)O)c3c2)ccc1=O [Compound 150A] | > 5 | – |
| C/N=c1/ccc(-c2ccc3ncc(S(=O)(=O)N4CCOCC4)c(Nc4ccccc4C(=O)O)c3c2)c[nH]1 [Compound 151A] | 1 to 5 | – |
| CN(C)c1cncc(-c2ccc3ncc(S(=O)(=O)N4CCOCC4)c(Nc4ccccc4C(=O)O)c3c2)c1 [Compound 152A, 2-[[6-[5-(dimethylamino)-3-pyridyl]-3-morpholinosulfonyl-4-quinolyl]amino]benzoic acid] | 1 to 5 | – |
| O=C(O)c1ccccc1Nc1c(S(=O)(=O)N2CCOCC2)cnc2ccc(-c3cncc(C4CC4)c3)cc12 [Compound 153A, 2-[[6-(5-cyclopropyl-3-pyridyl)-3-morpholinosulfonyl-4-quinolyl]amino]benzoic acid] | 1 to 5 | – |
| O=C(O)c1ccccc1Nc1c(S(=O)(=O)N2CCOCC2)cnc2ccc(-c3cncnc3)cc12 [Compound 154A, 2-[(3-morpholinosulfonyl-6-pyrimidin-5-yl-4-quinolyl)amino]benzoic acid] | > 5 | – |
| O=C(O)c1ccccc1Nc1c(S(=O)(=O)N2CCOCC2)cnc2ccc(-c3cnc4[nH]ncc4c3)cc12 [Compound 155A, 2-[[3-morpholinosulfonyl-6-(1H-pyrazolo[3,4-b]pyridin-5-yl)-4-quinolyl]amino]benzoic acid] | 1 to 5 | – |
| Cc1c[nH]c2ncc(-c3ccc4ncc(S(=O)(=O)N5CCOCC5)c(Nc5ccccc5C(=O)O)c4c3)cc12 [Compound 156A, 2-[[6-(3-methyl-TH-pyrrolo[2,3-b]pyridin-5-yl)-3-morpholinosulfonyl-4-quinolyl]amino]benzoic acid] | > 5 | – |
| O=C(O)c1ccccc1Nc1c(S(=O)(=O)N2CCOCC2)cnc2ccc(-c3ccc(N4CCCC4)nc3)cc12 [Compound 157A, 2-[[3-morpholinosulfonyl-6-(6-pyrrolidin-1-yl-3-pyridyl)-4-quinolyl]amino]benzoic acid] | < 1 | – |
| O=C(O)c1ccccc1Nc1c(S(=O)(=O)N2CCOCC2)cnc2ccc(-c3ccnc4[nH]ccc34)cc12 [Compound 159A, 2-[[3-morpholinosulfonyl-6-(1H-pyrrolo[2,3-b]pyridin-4-yl)-4-quinolyl]amino]benzoic acid] | > 5 | – |
| O=C(O)c1ccccc1Nc1c(S(=O)(=O)N2CCOCC2)cnc2ccc(-c3cncc4[nH]ccc34)cc12 [Compound 160A, 2-[[3-morpholinosulfonyl-6-(1H-pyrrolo[2,3-c]pyridin-4-yl)-4-quinolyl]amino]benzoic acid] | > 5 | – |
| Cc1cc(OC(C)C)ncc1-c1ccc2ncc(S(=O)(=O)N3CCOCC3)c(Nc3ccccc3C(=O)O)c2c1 [Compound 161A, 2-[[6-(6-isopropoxy-4-methyl-3-pyridyl)-3-morpholinosulfonyl-4-quinolyl]amino] benzoic acid] | < 1 | – |
| O=C(O)c1ccccc1Nc1c(S(=O)(=O)N2CCOCC2)cnc2ccc(-c3ccc(Oc4ccccc4)nc3)cc12 [Compound 162A, 2-[[3-morpholinosulfonyl-6-(6-phenoxy-3-pyridyl)-4-quinolyl]amino]benzoic acid] | 1 to 5 | – |
| O=C(O)c1ccccc1Nc1c(S(=O)(=O)N2CCOCC2)cnc2ccc(-c3ccc(N4CCOCC4)nc3)cc12 [Compound 163A, 2-[[6-(6-morpholino-3-pyridyl)-3-morpholinosulfonyl-4-quinolyl]amino]benzoic acid] | 1 to 5 | – |
| N#Cc1ccc(-c2ccc3ncc(S(=O)(=O)N4CCOCC4)c(Nc4ccccc4C(=O)O)c3c2)cn1 [Compound 164A, 2-[[6-(6-cyano-3-pyridyl)-3-morpholinosulfonyl-4-quinolyl]amino]benzoic acid] | 1 to 5 | – |
| CN1CCN(c2ccc(-c3ccc4ncc(S(=O)(=O)N5CCOCC5)c(Nc5ccccc5C(=O)O)c4c3)cn2)CC1 [Compound 165A, 2-[[6-[6-(4-methylpiperazin-1-yl)-3-pyridyl]-3-morpholinosulfonyl-4-quinolyl]amino]benzoic acid] | 1 to 5 | – |
| COc1ncc(-c2ccc3ncc(S(=O)(=O)N4CCOCC4)c(Nc4ccccc4C(=O)O)c3c2)cc1N [Compound 166A, 2-[[6-(5-amino-6-methoxy-3-pyridyl)-3-morpholinosulfonyl-4-quinolyl]amino]benzoic acid] | 1 to 5 | – |
| CNC(=O)c1ccc(-c2ccc3ncc(S(=O)(=O)N4CCOCC4)c(Nc4ccccc4C(=O)O)c3c2)cn1 [Compound 167A, 2-[[6-[6-(methylcarbamoyl)-3-pyridyl]-3-morpholinosulfonyl-4-quinolyl]amino]benzoic acid] | < 1 | – |
| O=C(O)c1ccccc1Nc1c(S(=O)(=O)N2CCOCC2)cnc2ccc(-c3cnccc3C(F)(F)F)cc12 [Compound 168A, 2-[[3-morpholinosulfonyl-6-[4-(trifluoromethyl)-3-pyridyl]-4-quinolyl]amino]benzoic acid] | 1 to 5 | – |
| O=C(O)c1ccccc1Nc1c(S(=O)(=O)N2CCOCC2)cnc2ccc(-c3ccnc(N4CCNCC4)c3)cc12 [Compound 169A, 2-[[3-morpholinosulfonyl-6-(2-piperazin-1-yl-4-pyridyl)-4-quinolyl]amino]benzoic acid] | < 1 | – |
